Laboratory results reported in US7927581B2, “Peptide-based multimeric targeted contrast agents” (Factor 1A, LLC, priority 2001, dated 2011).
Like-named read-outs stand apart in the source and are kept apart here. Positions of bridges follow the written chain, without caps; N, C: chain ends. Non-standard residues stand in square brackets, D forms with d. Residues, ends and D or L forms follow the SMILES beside them. *: point of attachment. FITC = O=C1OC2(c3ccc(O)cc3Oc3cc(O)ccc32)c2ccc(NC(=S)*)cc21; Tyr(3-I) = N[C@@H](Cc1ccc(O)c(I)c1)C(=O)O; Hyp = O=C(O)[C@@H]1C[C@@H](O)CN1; Ahx = NCCCCCC(=O)O

How the values were obtained:
[1] = Stability in rat liver homogenate; type: in vitro ADME; details: 37° C., LC-MS; for half-life: tissue homogenate
Experimental: Stability was assayed using rat liver homogenate, which contains both intra- and extracellular enzymes and represents a particularly harsh chemical environment for peptide bonds. Freshly prepared rat liver homogenate (630 μL) was placed in a glass test tube and incubated at 37° C. in a water bath for 4 minutes. To the rat liver homogenate at 37° C. was added 70 μL of a 1 mM solution of test compound. At time points 0, 5, 15, 30, and 60 minutes, a 100 μL aliquot of the reaction mixture was removed and mixed with 100 μL of methanol in a microfuge tube to quench the reaction. The quenched reaction mixture was centrifuged for 3 minutes at 10,000 rpm to pellet the precipitated protein. The supernatant was analyzed by LC-MS to quantitate the amount of test compound remaining by comparing the area of the single ion MS peak to that of a series of standards. Half life (T1/2) was determined by plotting log percent signal remaining vs. time. The data were fit using an exponential curve fit, wherein T1/2=In2/slope.

fibrin DD(E) fragment = fibrin DD(E) fragment (Homo sapiens, UniProt P02671+P02675+P02679); experiment: Fibrin DD(E) fragment affinity of optical contrast agents; type: binding
Experimental: NovaSyn TGR resin (0.20 mmol/g, 100 mg, 20 μmol) was washed with NMP/ether/NMP. The peptide was assembled by the standard solid phase method using the PyBOP/HOBt/DIEA activation. After the coupling of the final amino acid residue, the resin bound peptide was treated with a solution of piperidine in DMF (20% by volume, 2.0 mL) for 10 minutes to remove the Fmoc protecting group. The resin was washed thoroughly with NMP/ether/NMP, and was treated with a solution of fluorascein-5-isothiocyanate (23.4 mg, 60 μmol) and duisopropylethylamine (11.6 mg, 15.7 μL, 90 μmol) in DMF (1.5 mL) for 12 hours. The resin was washed thoroughly (NMP/ether/NMP), and treated with a solution of Tl (TFA)3 (18.7 mg, 34.5 μmol) in DMF (1.5 mL) at 4° C. for three hours. The resin was washed after this treatment, and treated with a cocktail of TFA/TIS/water (95/2.5/2.5, 2.0 mL) for two hours. The crude peptide was precipitated by adding ether to the cleavage cocktail, and purified by preparative HPLC using a Vydac C-18 column. Structures A-N were formed in this manner and their fibrin DD(E) fragment affinities were determined (Table 5).
N-terminal labeling of the peptides with optical probes can modulate the binding affinity of the optical contrast agents. For example, when comparing fluorescein, 4-methoxycoumarin and tetramethylrhodamine derivatives of the peptide (QWECPYGLCWIQ (SEQ ID NO:27); Kd=3 μM) the following Kd's were observed (Table 6): […]

[2] = fluorescein-labeled peptides, read-out: Kd (μM) Vs. DD(E)

fibrin DD(E) fragment, sequence (P02671 124-216): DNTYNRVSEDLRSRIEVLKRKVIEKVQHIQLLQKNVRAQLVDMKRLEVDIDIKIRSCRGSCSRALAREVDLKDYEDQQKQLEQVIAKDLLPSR
fibrin DD(E) fragment, sequence (P02675 164-491): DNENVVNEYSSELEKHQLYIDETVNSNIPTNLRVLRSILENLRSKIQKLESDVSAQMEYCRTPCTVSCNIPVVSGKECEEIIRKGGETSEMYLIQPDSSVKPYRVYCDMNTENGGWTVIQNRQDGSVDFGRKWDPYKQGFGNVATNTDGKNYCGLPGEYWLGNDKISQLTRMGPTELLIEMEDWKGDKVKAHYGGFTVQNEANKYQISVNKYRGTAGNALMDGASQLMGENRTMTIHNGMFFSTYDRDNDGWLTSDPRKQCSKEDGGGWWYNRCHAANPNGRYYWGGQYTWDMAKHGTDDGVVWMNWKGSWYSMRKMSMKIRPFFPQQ
fibrin DD(E) fragment, sequence (P02679 114-432): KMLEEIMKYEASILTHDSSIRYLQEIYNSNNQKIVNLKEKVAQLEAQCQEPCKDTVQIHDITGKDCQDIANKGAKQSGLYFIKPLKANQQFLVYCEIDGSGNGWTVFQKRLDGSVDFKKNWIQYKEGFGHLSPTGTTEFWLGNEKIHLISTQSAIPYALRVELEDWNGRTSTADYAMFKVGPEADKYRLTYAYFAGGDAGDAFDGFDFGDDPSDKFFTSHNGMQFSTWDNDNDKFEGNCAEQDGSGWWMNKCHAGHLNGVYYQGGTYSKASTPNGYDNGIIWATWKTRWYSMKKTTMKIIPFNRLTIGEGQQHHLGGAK
fibrin DD(E) fragment, sequence (P02671 36-97): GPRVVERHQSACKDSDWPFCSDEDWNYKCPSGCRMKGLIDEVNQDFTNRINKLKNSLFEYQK
fibrin DD(E) fragment, sequence (P02675 45-152): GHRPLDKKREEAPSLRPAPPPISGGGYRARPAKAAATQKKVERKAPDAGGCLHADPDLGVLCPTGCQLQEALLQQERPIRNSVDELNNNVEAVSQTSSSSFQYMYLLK
fibrin DD(E) fragment, sequence (P02679 27-88): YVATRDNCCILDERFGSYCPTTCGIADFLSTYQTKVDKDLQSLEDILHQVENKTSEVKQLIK

| Compound | Kd (fibrin DD(E) fragment; [2]) [µM] | half-life [1] [min] | other results |
| --- | --- | --- | --- |
| CC(C)C[C@H](NC(=O)[C@@H]1CSSC[C@H](NC(=O)[C@@H]2CCCN2C(=O)[C@@H](N)CC(C)C)C(=O)N[C@@H](CC(=O)O)C(=O)N[C@@H](Cc2ccc(O)cc2)C(=O)N[C@@H](Cc2ccc(O)cc2)C(=O)NCC(=O)N[C@@H](C(C)O)C(=O)N1)C(=O)N[C@@H](CC(=O)O)C(N)=O (stereo partly shown) [Structure 1] |  |  | half-life at 100 µM [1]: < 2 min |
| CC[C@H](C)[C@H](NC(=O)[C@H](Cc1c[nH]cn1)NC(=O)[C@@H]1CSSC[C@H](NC(=O)[C@H](Cc2c[nH]cn2)NC(=O)[C@H](Cc2ccccc2)NC(=O)[C@H](Cc2c[nH]c3ccccc23)NC(=O)CCCCCNC(=S)Nc2ccc3c(c2)C(=O)OC32c3ccc(O)cc3Oc3cc(O)ccc32)C(=O)N2C[C@H](O)C[C@H]2C(=O)N[C@@H](Cc2ccc(O)c(I)c2)C(=O)N[C@@H](CC(=O)O)C(=O)N[C@@H](CC(C)C)C(=O)N1)C(N)=O [D] ({FITC-Ahx}-WFHC[Hyp][Tyr(3-I)]DLCHI-NH2; disulfide 4-9) | 0.061 |  |  |
| CC(C)C[C@H](NC(=O)[C@@H]1CSSC[C@H](NC(=O)[C@@H]2CCCN2C(=O)[C@H](CC(C)C)NC(=O)c2ccc(-c3ccccc3)cc2)C(=O)N[C@@H](CC(=O)O)C(=O)N[C@@H](Cc2ccc(O)cc2)C(=O)N[C@@H](Cc2ccc(O)cc2)C(=O)NCC(=O)N[C@@H]([C@@H](C)O)C(=O)N1)C(=O)N[C@@H](CC(=O)O)C(=O)NCCN(CCN(CCN)C(=O)C(CNC(=O)CN(CCN(CCN(CC(=O)O)CC(=O)O)CC(=O)O)CC(=O)O)NC(=O)CN(CCN(CCN(CC(=O)O)CC(=O)O)CC(=O)O)CC(=O)O)C(=O)C(CNC(=O)CN(CCN(CCN(CC(=O)O)CC(=O)O)CC(=O)O)CC(=O)O)NC(=O)CN(CCN(CCN(CC(=O)O)CC(=O)O)CC(=O)O)CC(=O)O (stereo partly shown) [Structure 3] |  | 9 |  |
| CC(C)C[C@H](NC(=O)[C@@H]1CSSC[C@H](NC(=O)[C@@H]2CCCN2C(=O)[C@H](CC(C)C)NC(=O)C(CNC(=O)C(CN(CCN(CC(=O)O)CC(=O)O)CC(=O)O)N(CC(=O)O)CC(=O)O)NC(=O)C(CN(CCN(CC(=O)O)CC(=O)O)CC(=O)O)N(CC(=O)O)CC(=O)O)C(=O)N[C@@H](CC(=O)O)C(=O)N[C@@H](Cc2ccc(O)cc2)C(=O)N[C@@H](Cc2ccc(O)cc2)C(=O)NCC(=O)N[C@@H]([C@@H](C)O)C(=O)N1)C(=O)N[C@@H](CC(=O)O)C(=O)NCc1ccc(CNC(=O)C(CNC(=O)C(CN(CCN(CC(=O)O)CC(=O)O)CC(=O)O)N(CC(=O)O)CC(=O)O)NC(=O)C(CN(CCN(CC(=O)O)CC(=O)O)CC(=O)O)N(CC(=O)O)CC(=O)O)cc1 (stereo partly shown) [Compound 5] |  | 65 |  |
| CC[C@H](C)[C@H](NC(=O)[C@H](Cc1c[nH]cn1)NC(=O)[C@@H]1CSSC[C@H](NC(=O)[C@H](Cc2c[nH]cn2)NC(=O)[C@H](Cc2ccccc2)NC(=O)CNC(=O)CNC(=O)CCCCCNC(=S)Nc2ccc3c(c2)C(=O)OC32c3ccc(O)cc3Oc3cc(O)ccc32)C(=O)N2C[C@H](O)C[C@H]2C(=O)N[C@@H](Cc2ccc(O)c(I)c2)C(=O)N[C@@H](CC(=O)O)C(=O)N[C@@H](CC(C)C)C(=O)N1)C(N)=O [E] ({FITC-Ahx}-GGFHC[Hyp][Tyr(3-I)]DLCHI-NH2; disulfide 5-10) | 0.09 |  |  |
| C=NOCC(=O)NCCN(CCN(CCNC(=O)CO/N=C/C(=O)N[C@@H](CC(C)C)C(=O)N1CCC[C@H]1C(=O)N[C@H]1CSSC[C@@H](C(=O)N[C@@H](Cc2ccc(-c3ccccc3)cc2)C(=O)N[C@@H](CC(=O)O)C(N)=O)NC(=O)[C@H]([C@@H](C)O)NC(=O)CNC(=O)[C@H](Cc2ccc(O)cc2)NC(=O)[C@H](Cc2ccc(O)cc2)NC(=O)[C@H](CC(=O)O)NC1=O)C(=O)C(CNC(=O)CN(CCN(CCN(CC(=O)O)CC(=O)O)CC(=O)O)CC(=O)O)NC(=O)CN(CCN(CCN(CC(=O)O)CC(=O)O)CC(=O)O)CC(=O)O)C(=O)C(CNC(=O)CN(CCN(CCN(CC(=O)O)CC(=O)O)CC(=O)O)CC(=O)O)NC(=O)CN(CCN(CCN(CC(=O)O)CC(=O)O)CC(=O)O)CC(=O)O (stereo partly shown) [Structure 2] |  | 10 |  |

The next lines start with results.

| Kd (fibrin DD(E) fragment; [2]) [µM] | Compound | half-life [1] [min] | other results |
| --- | --- | --- | --- |
| 0.097 | CC[C@H](C)[C@H](NC(=O)[C@H](Cc1c[nH]cn1)NC(=O)[C@@H]1CSSC[C@H](NC(=O)[C@H](Cc2c[nH]cn2)NC(=O)[C@H](Cc2ccccc2)NC(=O)CNC(=O)CCCCCNC(=S)Nc2ccc3c(c2)C(=O)OC32c3ccc(O)cc3Oc3cc(O)ccc32)C(=O)N2C[C@H](O)C[C@H]2C(=O)N[C@@H](Cc2ccc(O)c(I)c2)C(=O)N[C@@H](CC(=O)O)C(=O)N[C@@H](CC(C)C)C(=O)N1)C(N)=O [C] ({FITC-Ahx}-GFHC[Hyp][Tyr(3-I)]DLCHI-NH2; disulfide 4-9) |  |  |
| 0.06 | CC[C@H](C)[C@H](NC(=O)[C@H](Cc1c[nH]cn1)NC(=O)[C@@H]1CSSC[C@H](NC(=O)[C@H](Cc2c[nH]cn2)NC(=O)[C@H](Cc2ccccc2)NC(=O)[C@H](Cc2c[nH]c3ccccc23)NC(=S)Nc2ccc3c(c2)C(=O)OC32c3ccc(O)cc3Oc3cc(O)ccc32)C(=O)N2CCC[C@H]2C(=O)N[C@@H](Cc2ccc(O)cc2)C(=O)N[C@@H](CC(=O)O)C(=O)N[C@@H](CC(C)C)C(=O)N1)C(=O)N[C@@H](CC(C)C)C(N)=O [Compound K] (HELM PEPTIDE1{[O=C1OC2(c3ccc(O)cc3Oc3cc(O)ccc32)c2ccc(NC(=S)[*:2])cc21].W.F.H.C.P.Y.D.L.C.H.I.L.[am]}$PEPTIDE1,PEPTIDE1,5:R3-10:R3$$$V2.0) |  |  |
| 0.055 | CC[C@H](C)[C@H](NC(=O)[C@H](Cc1c[nH]c2ccccc12)NC(=O)[C@@H]1CSSC[C@H](NC(=O)[C@H](CCC(=O)O)NC(=O)[C@H](Cc2c[nH]c3ccccc23)NC(=O)[C@H](CCC(N)=O)NC(=S)Nc2ccc3c(c2)C(=O)OC32c3ccc(O)cc3Oc3cc(O)ccc32)C(=O)N2CCC[C@H]2C(=O)N[C@@H](Cc2ccc(O)cc2)C(=O)NCC(=O)N[C@@H](CC(C)C)C(=O)N1)C(=O)N[C@@H](CCC(N)=O)C(N)=O [J] (HELM PEPTIDE1{[O=C1OC2(c3ccc(O)cc3Oc3cc(O)ccc32)c2ccc(NC(=S)[*:2])cc21].Q.W.E.C.P.Y.G.L.C.W.I.Q.[am]}$PEPTIDE1,PEPTIDE1,5:R3-10:R3$$$V2.0) |  | Kd (fibrin DD(E) fragment; fluorophore derivatives of QWECPYGLCWIQ, no unit in Table 6, read-out: Kd): 0.06 µM |
